Experimental data taken from US7858637B2, “Administration of TLR7 ligands and prodrugs thereof for treatment of infection by hepatitis C virus” (priority 2003, dated 2010).
Like-named read-outs stand apart in the source and are kept apart here.

Experiments:
[1] = test system: HCV replicon; experiment: HCV replicon-based viral bioassay with supernatants of compound-treated PBMC; assay type: cell-based, hepatitis C virus
Experimental: A quantitative assay was developed which is based on measuring the activity of the luciferase reporter gene that was integrated into an HCV replicon. By using this system, interferons from TLR7 agonist-treated PBMCs were measured and their inhibitory activity was assessed using the luciferase reporter replicon.
Human PBMCs isolated from a healthy donor were placed in replicate cell culture wells (5×10^6 cells per well). The PBMCs are incubated in the absence of test compounds at 37° C. in a humidified atmosphere containing 5% CO2 for 24 hours to allow stabilization to the culture conditions, and then the TLR7 ligand or a drug free control is added to replicate wells containing PBMCs from the same donor. The concentrations of TLR7 ligand may be varied to suit the particular experiment, and the PBMC cultures are then incubated at 37° C. in a humidified atmosphere containing 5% CO2 for eight hours. Samples of cell culture supernatant are taken at the eight hour time point (or twenty four hour time point in case of Loxoribine and its prodrugs) from TLR7 ligand treated and control wells and are assayed for interferon-alpha production by ELISA. Supernatants from compound-treated cells and a no-drug control were diluted at 1:10, 1:100, and 1:1000 in RPMI media and applied to a 96-well plate of Huh7 hepatocyte cells containing the luciferase reporter replicon. Cells were incubated for 48 hours at 37° C. in a tissue culture incubator.
After the incubation period, the 96-well plates are washed 2× with PBS and are lysed with passive lysis buffer (Promega). Plates are shaken at room temperature for 20 minutes and standard luciferase assay reagent (Promega) is added to each well by injection and the plate is read on an Lmax luminometer (Molecular Devices).
A supernatant collected from PBMC cells non-exposed to the compound and diluted as specified in the first column was used as a control (“Blank supernatant”). The PBMC cells were isolated from a single blood donor as specified.

[2] = test system: human peripheral blood mononuclear cells (PBMC); experiment: PBMC assay of interferon alpha release (masking); assay type: cell-based
Experimental: A typical experiment would use human peripheral blood mononuclear cells (PBMC) isolated from a healthy donor and placed in replicate cell culture wells; typically, 2×10^6 to 5×10^6 cells are placed in each well. The PBMC are incubated in the absence of test compounds at 37° C. in a humidified atmosphere containing 5% CO2 for 24 hours to allow stabilization to the culture conditions, and then 100 micromolar isatoribine, the TLR7 ligand and a corresponding TLR7 ligand prodrug are added to separate wells containing PBMC from the same donor; untreated controls are included. The concentrations of TLR7 ligand and TLR7 ligand prodrug may be varied to suit the particular experiment, and the PBMC cultures are then incubated at 37° C. in a humidified atmosphere containing 5% CO2 for a period of time ranging from two hours to 48 hours. Samples of cell culture supernate media are taken during the incubation. These are assayed for cytokine production by ELISA. Additionally the amount of TLR7 ligand and TLR7 ligand prodrug remaining at the end of the incubation may be assayed by LC-MS. Cytokine production is calculated relative to production in the isatoribine control, following subtraction of the cytokine production in untreated controls.
Thus, if the TLR7 ligand generates more interferon alpha (a conveniently measured cytokine) than does the corresponding TLR7 ligand prodrug after a similar duration of exposure and concentration, the TLR7 ligand prodrug may be deemed a “masked” TLR7 ligand prodrug.

[3] = Homo sapiens, PBMC, Table 10, 100 μM, 24 hours exposure, read-out: Amount of INFa relative to that induced by isatoribine at 100 μM
[4] = Homo sapiens, PBMC, Table 11, 100 μM, 24 hours exposure, read-out: Amount of INFa relative to that induced by isatoribine at 100 μM
[5] = Homo sapiens, PBMC, Table 13, 100 μM, 24 hours exposure, read-out: Amount of INFa relative to that induced by isatoribine at 100 μM
[6] = Homo sapiens, PBMC, Table 14, 24 hours exposure, read-out: Amount of INFa relative to that induced by isatoribine at 100 μM
[7] = Homo sapiens, PBMC, Table 9, 100 μM, 24 hours exposure, same blood donor, read-out: Amount of INFa relative to that induced by isatoribine at 100 μM

C=CCn1c(=O)n([C@@H]2O[C@H](CO)[C@@H](O)[C@H]2O)c2nc(N)[nH]c(=O)c21 [Compound 17, 7-allyl-2-amino-9-β-D-ribofuranosyl-7,9-dihydro-1H-purine-6,8-dione]
HCV replicon inhibition ([1]; Table 4 No. 1, PBMC exposed 24 hours to 100 μM, donor FL75864, supernatant dilution 1:10): 100%
HCV replicon inhibition ([1]; Table 4 No. 1, PBMC exposed 24 hours to 100 μM, donor FL75864, supernatant dilution 1:100): 74%
HCV replicon inhibition ([1]; Table 4 No. 1, PBMC exposed 24 hours to 100 μM, donor FL75864, supernatant dilution 1:1000): 17%
Emax at 100 µM [2, 3]: 50%

CC(C)Cn1cnc2c(N)nc3ccccc3c21 [Compound 31, 1-Isobutyl-1H-imidazo[4,5-c]quinolin-4-ylamine]
HCV replicon inhibition ([1]; Table 5 No. 1, PBMC exposed 8 hours to 3.2 μM, donor FL75287, supernatant dilution 1:10): 100%
HCV replicon inhibition ([1]; Table 5 No. 1, PBMC exposed 8 hours to 3.2 μM, donor FL75287, supernatant dilution 1:100): 100%
HCV replicon inhibition ([1]; Table 5 No. 1, PBMC exposed 8 hours to 3.2 μM, donor FL75287, supernatant dilution 1:1000): 89%
HCV replicon inhibition ([1]; Table 5 No. 2, PBMC exposed 8 hours to 3.2 μM, donor FL75287, supernatant dilution 1:10): 100%
HCV replicon inhibition ([1]; Table 5 No. 2, PBMC exposed 8 hours to 3.2 μM, donor FL75287, supernatant dilution 1:100): 75%
HCV replicon inhibition ([1]; Table 5 No. 2, PBMC exposed 8 hours to 3.2 μM, donor FL75287, supernatant dilution 1:1000): 1%
Emax at 100 µM ([2]; Homo sapiens, PBMC, 24 h, read-out: Amount of INFa relative to that induced by isatoribine at 100 μM): 60 to 76%

CCCCCOC(=O)Nc1nc2ccccc2c2c1ncn2CC(C)C [Compound 34, (1-Isobutyl-1H-imidazo[4,5-c]quinolin-4-yl)-carbamic acid pentyl ester]
Emax at 100 µM [2, 4]: 0%

CCOC(=O)Nc1nc(-c2ccccc2)c(Br)c(=O)[nH]1 [Compound 36, (5-Bromo-6-oxo-4-phenyl-1,6-dihydro-pyrimidin-2-yl)-carbamic acid ethyl ester]
Emax at 100 µM [2, 5]: 0%

CCOc1nc(N)nc(-c2ccccc2)c1Br [Compound 37, 5-Bromo-4-ethoxy-6-phenyl-pyrimidin-2-ylamine]
Emax at 100 µM [2, 5]: 0%

C=CCn1c(=O)n([C@@H]2O[C@H](CO)[C@@H](O)[C@H]2O)c2nc(N)ncc21 [Compound 43, 7-Allyl-2-amino-9-β-D-ribofuranosyl-7,9-dihydro-purin-8-one]
Emax at 100 µM [2, 3]: 0%

C=CCn1c(=O)n([C@@H]2O[C@H](CO)[C@@H](O)[C@H]2O)c2nc(N)nc(OCC)c21 [Compound 45, 7-Allyl-2-amino-6-ethoxy-9-β-D-ribofuranosyl-7,9-dihydro-purin-8-one]
Emax at 100 µM [2, 3]: 0%

Nc1ncc(Br)c(-c2ccccc2)n1 [Compound 48, 5-Bromo-4-phenyl-pyrimidin-2-ylamine]
Emax at 100 µM [2, 5]: 0%

CCCCCOC(=O)Nc1nc(-c2ccccc2)c(Br)c(=O)[nH]1 [Compound 49, (5-Bromo-6-oxo-4-phenyl-1,6-dihydro-pyrimidin-2-yl)-carbamic acid pentyl ester]
Emax at 100 µM [2, 5]: 0%

CCOC(=O)Nc1nc2ccccc2c2c1ncn2CC(C)C [Compound 50, (1-Isobutyl-1H-imidazo[4,5-c]quinolin-4-yl)-carbamic acid ethyl ester]
Emax at 100 µM [2, 4]: 0%

CCOC(=O)Oc1nc2c(N)nc(OCCOC)nc2n1Cc1ccccc1 [Compound 51, Carbonic acid 6-amino-9-benzyl-2-(2-methoxy-ethoxy)-9H-purin-8-yl ester ethyl ester]
Emax at 32 µM ([2]; Homo sapiens, PBMC, Table 14, 32 μM, 24 hours exposure, read-out: Amount of INFa relative to that induced by isatoribine at 100 μM): 18%

CCCCCOC(=O)Oc1nc2c(N)nc(OCCOC)nc2n1Cc1ccccc1 [Compound 54, Carbonic acid 6-amino-9-benzyl-2-(2-methoxy-ethoxy)-9H-purin-8-yl ester pentyl ester]
Emax at 10 µM [2, 6]: 15%

COCCOc1nc(N)c2ncn(Cc3ccccc3)c2n1 [Compound 62, 9-Benzyl-2-(2-methoxy-ethoxy)-9H-purin-6-ylamine]
Emax at 0.1 µM ([2]; Homo sapiens, PBMC, Table 14, 0.1 μM, 24 hours exposure, read-out: Amount of INFa relative to that induced by isatoribine at 100 μM): 0%

CCOc1nc2c(N)nc(OCCOC)nc2n1Cc1ccccc1 [Compound 64, 9-Benzyl-8-ethoxy-2-(2-methoxy-ethoxy)-9H-purin-6-ylamine]
Emax at 10 µM [2, 6]: 0%

COCCOc1nc(N)c2nc(OC)n(Cc3ccccc3)c2n1 [Compound 65, 9-Benzyl-8-methoxy-2-(2-methoxy-ethoxy)-9H-purin-6-ylamine]
Emax at 100 µM ([2]; Homo sapiens, PBMC, Table 14, 100 μM, 24 hours exposure, read-out: Amount of INFa relative to that induced by isatoribine at 100 μM): 0%

C=CCn1c(=O)n([C@@H]2O[C@H](COC(=O)[C@@H](N)C(C)C)[C@@H](O)[C@H]2O)c2nc(N)[nH]c(=O)c21 [Compound 68, 7-Allyl-2-Amino-9-(5′-O-L-valinyl-β-D-ribofuranosyl)-7,9-dihydro-1H-purine-6,8-dione]
Emax at 100 µM [2, 3]: 0%

CCOc1nc(N)nc2c1sc(=O)n2[C@@H]1O[C@H](CO)[C@@H](O)[C@H]1O [Compound 77, 5-Amino-7-ethoxy-3-β-D-ribofuranosyl-thiazolo[4,5-d]pyrimidin-2-one]
Emax at 100 µM [2, 7]: 0%

COc1nc(N)nc2c1sc(=O)n2[C@@H]1O[C@H](CO)[C@@H](O)[C@H]1O [Compound 79, 5-Amino-7-methoxy-3-β-D-ribofuranosyl-thiazolo[4,5-d]pyrimidin-2-one]
Emax at 100 µM [2, 7]: 0%

CCOC(=O)NCOc1nc(N)nc2c1sc(=O)n2[C@@H]1O[C@H](CO)[C@@H](O)[C@H]1O [Compound 82, (5-Amino-2-oxo-3-β-D-ribofuranosyl-2,3-dihydro-thiazolo[4,5-d]pyrimidin-7-yloxymethyl)-carbamic acid ethyl ester]
Emax at 100 µM [2, 7]: 0%

CCOC(=O)N(C)COc1nc(N)nc2c1sc(=O)n2[C@@H]1O[C@H](CO)[C@@H](O)[C@H]1O [Compound 84, (5-Amino-2-oxo-3-β-D-ribofuranosyl-2,3-dihydro-thiazolo[4,5-d]pyrimidin-7-yloxymethyl)-methyl-carbamic acid ethyl ester]
Emax at 100 µM [2, 7]: 0%

CC(=O)OC[C@H]1O[C@@H](n2c(=O)sc3c(OCc4oc(=O)oc4C)nc(N)nc32)[C@H](OC(C)=O)[C@@H]1OC(C)=O [Compound 85, 5-Amino-7-(5-methyl-2-oxo-[1,3]dioxol-4-ylmethoxy)-3-(2′,3′,5′-tri-O-acetyl-β-D-ribofuranosyl)-thiazolo[4,5-d]pyrimidin-2-one]
Emax at 100 µM [2, 7]: 0%

[2-Ethoxymethyl-1-(2-hydroxy-2-methyl-propyl)-1H-imidazo[4,5-c]quinolin-4-yl]-carbamic acid ethyl ester [Compound 39]
Amount of INFa relative to that induced by isatoribine at 100 μM ([2]; Table 12, 1 μM, 24 hours exposure): 95 @ 1 μM %
